The record followed here is ChEMBL document CHEMBL1151561, “Benzopyran sulfoxide derivatives as New potassium channel activator” (Bioorg Med Chem Lett, 1993).

The species named for this test is Canis familiaris. As to the kind of experiment: The compound was tested for its relaxation activity on smooth muscle of canine mesenteric artery. It is filed as functional. The conditions noted are these: Canis lupus familiaris.
In the case of `CC1(C)C=C(C2CCC[S+]2[O-])c2cc([N+](=O)[O-])ccc2O1` (stereo not given), the concentration for a half-maximal effect (EC50) came out at 1960 nM.

`CC1(C)C=C(c2cccc[n+]2[O-])c2cc([N+](=O)[O-])ccc2O1` gave a concentration giving a half-maximal response (EC50) of 61.8 nM.

`CC1(C)C[C@](O)(C2CCC[S+]2[O-])c2cc([N+](=O)[O-])ccc2O1` (stereo not given in full) had an EC50 of 12200 nM.

As for `CC1(C)C=C(c2cccc[n+]2[O-])c2cc(C#N)ccc2O1`, it took 222 nM to reach a half-maximal effect (EC50).

The compound `CC1(C)Oc2ccc(C#N)cc2[C@@H](N2CCCC2=O)[C@@H]1O` [CROMAKALIM] registered an EC50 of 1960 nM.
